Assays:
[1] = system: ANKH; test: RT-PCR of ANK after IL-1β treatment; assay type: cell-based, bovine; details: IL-1β 0.01 and 2 ng/ml; naïve cells and TNAP-infected BNP cells; day 3; FIG. 23
Description: (§1) Cells from Example 2 were grown in mineralization medium in the presence or absence of a low dose of […] (0.01 ng/ml) or a high dose (2 ng/ml) (R&D Systems). Cells were analyzed by Alizarin Red staining at 7 and 10 days as previously described. RT-PCR analysis of ANK and ENPP was also performed as previously described, using primers specific for ANKH and ENPP1.

[2] = system: BNP cells; test: Effect of IL-1β on mineralization, Alizarin Red staining; assay type: cell-based, bovine; details: IL-1β 0.01 and 2 ng/ml, 7 and 10 days
Description: as §1

[3] = system: ENPP1; test: RT-PCR of ENPP after IL-1β treatment; assay type: cell-based, bovine; details: IL-1β 0.01 and 2 ng/ml; naïve cells and TNAP-infected BNP cells; day 3; FIG. 23
Description: as §1

[4] = system: bovine NP cells; test: Effect of TNF-α on mineralization, Alizarin Red and von Kossa staining; assay type: cell-based
Description: The cells from Example 2 (TNAP infected and naïve) were grown in high density cultures in a medium comprising DMEM high glucose (4.5 g/L) plus 1% PenStrep, and 10% FBS, and 50 μ/ml ascorbic acid, and 5 mM of β-glycerophosphate (mineralization medium). Some cells were also stimulated with 10 ng/mL of hfTNF-α.
The cells were stained with Alizarin Red and von Kossa stain after 7, 14, and 21 days.

Substance | ANK transcripts [1] | Alizarin Red staining of NP cells transduced with LacZ [2] | calcium staining with Alizarin Red of TNAP-infected BNP cell cultures ([2]; mineralization medium, FIGS. 21, 22) | ENPP transcripts [3] | mineralization of NP cells stimulated with TNF-α only ([4]; 10 ng/mL TNF-α, cells without TNAP) | staining of TNAP infected cells stimulated with TNF-α ([4]; 10 ng/mL TNF-α, versus unstimulated TNAP infected cells, FIG. 10) | more Alizarin Red staining than TNAP alone ([4]; TNAP overexpressing cells stimulated with TNF-α, average over three weeks, FIG. 11) [%]
IL-1β: interleukin 1β (R&D Systems) added at 0.01 or 2 ng/ml | dose-dependent decrease | no observable change | dose-dependent increase | dose-dependent decrease |  |  | 
TNF-α |  |  |  |  | did not show mineralization | darker | 45
